Values quoted from earlier work, collected in patent US20130184245A1, “ENDOMETRIOSIS TREATMENT” (DRUGTECH CORPORATION, priority 2007, published 2013).
Where two headings read alike, the source gives them in different places.

Legend:
[1] = test system: women with endometriosis
[2] = intravaginal danazol therapy
[3] = test system: endometriosis; conditions: daily administration of 5 mg danazol in suppository form
[4] = vaginal suppository 100 mg/day versus per os 400 mg/day
[5] = test system: deeply infiltrating endometriosis
[6] = test system: pelvic endometriosis
[7] = test system: pelvic endometriosis; conditions: vaginal ring containing 1000 mg danazol
[8] = test system: women with endometriosis; conditions: intravaginal gel, 100 to 200 mg/day
[9] = not given; remark: listed apart in the source
[10] = intravaginal gel, 100 to 200 mg/day
[11] = test system: women with endometriosis and chronic pelvic pain symptoms; conditions: intravaginal danazol therapy, 22 women

| Structure (SMILES) | side effects such as seborrhea, acne and weight gain, versus oral ([1]; vaginal administration) | effectiveness in reducing dyspareunia and dysmenorrhea versus oral gestrinone therapy ([1]; vaginal route, women with endometriosis) | serum danazol concentrations (oral therapy with danazol at 400 mg/day) | serum danazol concentrations (vaginal danazol therapy (ring 1500 mg)) | peripheral levels of danazol [2] | effect on dyspareunia and dysmenorrhea [3] | danazol concentrations in the ovary and uterus, vaginal versus oral administration [4] | serum danazol concentration, vaginal versus oral administration [4] | women in whom ovulation and conception occurred ([5]; out of 31 infertile women with deeply infiltrating endometriosis, vaginal ring 1500 mg) | time to elimination of dysmenorrhea ([5]; vaginal ring containing 1500 mg danazol) | women in whom conception was enabled while the ring was in place ([6]; of 35 infertile women, vaginal ring 2000 to 3500 mg danazol) | effect on dysmenorrhea and pelvic endometriosis ([6]; vaginal ring containing 2000 to 3500 mg danazol, 35 infertile women) | efficacy in treating pelvic endometriosis [7] | effect on chronic pelvic pain [8] | systemic androgenic side effects [8] | serum danazol levels ([9]; danazol 400 mg/day per os) | serum danazol levels ([9]; topical danazol administration (vaginal ring 1000 mg)) | plasma levels of danazol [10] | management of chronic pelvic pain secondary to pelvic endometriosis [11] | side effect profile, systemic androgen-like effects [11] |
| --- | --- | --- | --- | --- | --- | --- | --- | --- | --- | --- | --- | --- | --- | --- | --- | --- | --- | --- | --- | --- |
| C#C[C@]1(O)CC[C@H]2[C@@H]3CCC4=CC(=O)CCC4=C3C=C[C@@]21CC [gestrinone, ethylnorgestrienone] | significantly lower | equally effective | – | – | – | – | – | – | – | – | – | – | – | – | – | – | – | – | – | – |
| C#C[C@]1(O)CC[C@H]2[C@@H]3CCC4=Cc5oncc5C[C@]4(C)[C@H]3CC[C@@]21C [danazol, 17α-ethynyl-17β-hydroxy-4-androsteno[2,3-d]-isoxazole] | – | – | high | undetectable | undetectable | remission | comparable | much lower | 17 | ≤ 3 months | 13 | reduced dysmenorrhea and pelvic endometriosis | very effective | significantly reduced | lack of systemic androgenic side effects | exceeded 100 ng/ml | undetectable | low to undetectable | effective | paucity of systemic androgen-like effects |
